Where a name gives a salt, the structure may show the parent alone.
Assay: Impurity profile (related substances) by HPLC, initial and after one month at 40° C. (stability study)
Type: physicochemical
Conditions: HPLC percent area
Protocol: The percentages of related substances were measured using an HPLC.
Stock promethazine HCl selectivity solution was prepared by accurately weighing about 2 mg of EP promethazine for peak identification CRS and transferring into 1 mL of diluent (prepared by mixing 750 mL of mobile phase A and 250 mL of acetonitrile), followed by vortexing to dissolve.
Ten capsules were randomly selected and weighed. The contents of the ten capsules were emptied into a 500 mL volumetric flask. 300 mL of diluent was added and the mixture was sonicated in an ice bath for 40 minutes or until completely disintegrated with intermittent swirling. The temperature was equilibrated to room temperature and more diluent was added to volume.
Promethazine HCl impurity sample solution: stock solution sample was filtered through a 0.45 μm PVDF membrane, syringe filter or a 0.45 μm PTFE w/GMF membrane, syringe filter discarding the first 5 mL and collecting approximately 20 mL into an appropriate glass container. Fill an HPLC vial with the filtrate
The RT of the promethazine in the promethazine HCl selectivity solution is between 44.1 and 53.9.
Mobile Phase B: 0.2% TFA in Acetonitrile, which was prepared by mixing well 2.0 ml of trifluoroacetic acid to 1 L of acetonitrile; and Gradient used was as follows in Table 15.
All known and unknown impurities were calculated via percent area as follow:
[formula] Where: • Ru=Peak area of related substance in the sample solution • Rt=Sum of peak area of promethazine or sumatriptan and all related substances areas corresponding to respective peak in sample solution • RRF=Relative Response Factor for related substances
The formulation was examined for its stability after one month at 40° C.

In the case of `CC(CN1c2ccccc2Sc2ccccc21)N(C)C` (centres unmarked) [Promethazine, Promethazine Hydrochloride], the “Impurity percentages, all related substances combined” value (in a capsule stored at 40° C. for 1 month) was 0.2% and the “Impurity percentages, all related substances combined” value (in a capsule, initial (before storage)) was 0.3%.

From patent US10772840B2 (Charleston Laboratories, Inc., priority 2016, dated 2020)
